Test results: ChEMBL document CHEMBL1139279, “3,4-Disubstituted indole acylsulfonamides: a novel series of potent and selective human EP3 receptor antagonists” (Bioorg Med Chem Lett, 2009)
Blank lines part the entries; values can stand above or below the compound they belong to.

How the values were obtained:
Liver microsomes = experiment: Metabolic stability in rat liver microsomes at 5 uM after 30 mins; format: ADME, Microsome; conditions: 0.5 h
[1] = Metabolic stability in human liver microsomes at 5 uM after 30 mins; format: ADME, Microsome; conditions: read-out: Activity
[2] = target: T1, Prostaglandin E2 receptor EP3 subtype (Homo sapiens, UniProt P43115); experiment: Displacement of [3H]PGE2 from human EP3 receptor
T1 sequence (P43115 whole entry): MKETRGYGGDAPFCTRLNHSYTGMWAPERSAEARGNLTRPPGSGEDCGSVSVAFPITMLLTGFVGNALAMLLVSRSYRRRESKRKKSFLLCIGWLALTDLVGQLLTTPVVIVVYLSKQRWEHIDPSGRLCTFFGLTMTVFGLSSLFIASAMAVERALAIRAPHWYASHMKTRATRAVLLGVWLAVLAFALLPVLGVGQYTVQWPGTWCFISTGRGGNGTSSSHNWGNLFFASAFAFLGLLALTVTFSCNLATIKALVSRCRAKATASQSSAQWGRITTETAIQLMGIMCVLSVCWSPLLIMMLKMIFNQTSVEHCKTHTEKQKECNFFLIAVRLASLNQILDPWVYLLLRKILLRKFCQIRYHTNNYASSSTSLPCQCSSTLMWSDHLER

[3] = target: T1, Prostaglandin E2 receptor EP3 subtype; experiment: Displacement of [3H]PGE2 from human EP3 receptor in presence of 10% human serum
Homo sapiens [4] = organism: Homo sapiens; experiment: Selectivity ratio of IC50 for human EP4 receptor to IC50 for human EP3 receptor
Homo sapiens [5] = organism: Homo sapiens; experiment: Selectivity ratio of IC50 for human EP1 receptor to IC50 for human EP3 receptor
Homo sapiens [6] = organism: Homo sapiens; experiment: Selectivity ratio of IC50 for human EP2 receptor to IC50 for human EP3 receptor
Homo sapiens [7] = organism: Homo sapiens; experiment: Selectivity ratio of IC50 for human FP receptor to IC50 for human EP3 receptor
Homo sapiens [8] = organism: Homo sapiens; experiment: Selectivity ratio of IC50 for human IP receptor to IC50 for human EP3 receptor
Rattus norvegicus = organism: Rattus norvegicus; experiment: Ex vivo inhibition of platelet aggregation in rat platelet-rich plasma; format: functional, organism-based
[9] = target: T1, Prostaglandin E2 receptor EP3 subtype; experiment: Antagonist activity at human EP3 receptor assessed as cAMP production by cell-based assay; format: functional
[10] = target: T2, Prostaglandin E2 receptor EP3 subtype (Mus musculus, UniProt P30557); experiment: Displacement of [3H]PGE2 from mouse EP3 receptor
T2 sequence (P30557 whole entry): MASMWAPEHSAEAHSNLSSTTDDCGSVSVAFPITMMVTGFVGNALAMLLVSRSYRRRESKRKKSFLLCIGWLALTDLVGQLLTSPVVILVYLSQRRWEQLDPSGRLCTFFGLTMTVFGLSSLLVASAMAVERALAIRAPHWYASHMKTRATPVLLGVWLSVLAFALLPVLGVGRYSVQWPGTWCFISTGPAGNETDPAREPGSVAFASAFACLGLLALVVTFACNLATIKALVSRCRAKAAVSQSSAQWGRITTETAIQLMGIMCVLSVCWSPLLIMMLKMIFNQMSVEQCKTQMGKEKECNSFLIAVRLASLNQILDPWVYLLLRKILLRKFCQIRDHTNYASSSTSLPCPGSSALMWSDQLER

Structure (SMILES): O=C(COc1cccc2[nH]cc(S(=O)(=O)c3ccc(Cl)cc3)c12)NS(=O)(=O)c1cc(Cl)c(Cl)s1
Activity (Liver microsomes): 98%
remaining at 0.5 h, 5 µM [1]: 75%

Structure (SMILES): O=C(COc1cccc2[nH]cc(S(=O)(=O)c3ccc4ccccc4c3)c12)NS(=O)(=O)c1cccc(Cl)c1
IC50 [2]: 5.9 nM

Structure (SMILES): O=C(COc1cccc2[nH]cc(Sc3ccc4ccccc4n3)c12)NS(=O)(=O)c1cc(Cl)c(Cl)s1
Activity (Liver microsomes): 35%
remaining at 0.5 h, 5 µM [1]: 23%

Structure (SMILES): O=C(COc1cccc2[nH]cc(S(=O)(=O)c3ccc(F)cc3Cl)c12)NS(=O)(=O)c1cc(Cl)c(Cl)s1
IC50 [2]: 20.2 nM
fold shift [3]: 10.7

Structure (SMILES): COc1ccc(S(=O)(=O)c2c[nH]c3cccc(OCC(=O)NS(=O)(=O)c4cc(Cl)c(Cl)s4)c23)cc1OC
IC50 [2]: 11.4 nM

Structure (SMILES): NC(=O)Cc1ccc(S(=O)(=O)c2c[nH]c3cccc(OCC(=O)NS(=O)(=O)c4cc(Cl)c(Cl)s4)c23)cc1
IC50 [2]: 27.8 nM
fold shift [3]: 5

Structure (SMILES): Cc1nnc(Sc2c[nH]c3cccc(OCC(=O)NS(=O)(=O)c4cc(Cl)c(Cl)s4)c23)s1
IC50 [2]: 36.7 nM

Structure (SMILES): Cn1nnnc1Sc1c[nH]c2cccc(OCC(=O)NS(=O)(=O)c3cc(Cl)c(Cl)s3)c12
IC50 [2]: 8.2 nM
fold shift [3]: 58.3

Structure (SMILES): O=C(COc1cccc2[nH]cc(Sc3nc4ccccc4s3)c12)NS(=O)(=O)c1cc(Cl)c(Cl)s1
Ratio IC50 (Homo sapiens [4]): 2390
IC50 [2]: 7.6 nM
Ratio IC50 (Homo sapiens [6]): 1660
Ratio IC50 (Homo sapiens [7]): 300
fold shift [3]: 9.8
Ratio IC50 (Homo sapiens [8]): 1060

Structure (SMILES): COc1ccc(S(=O)(=O)c2c[nH]c3cccc(OCC(=O)NS(=O)(=O)c4cc(Cl)c(Cl)s4)c23)cc1
IC50 [2]: 30 nM

Structure (SMILES): COc1ccccc1Sc1c[nH]c2cccc(OCC(=O)NS(=O)(=O)c3cc(Cl)c(Cl)s3)c12
IC50 [2]: 24 nM
fold shift [3]: 13.2

Structure (SMILES): O=C(COc1cccc2[nH]cc(S(=O)(=O)c3ccc4ccccc4n3)c12)NS(=O)(=O)c1cc(Cl)c(Cl)s1
Activity (Liver microsomes): 68%
remaining at 0.5 h, 5 µM [1]: 60%

Structure (SMILES): O=C(COc1cccc2[nH]cc(S(=O)(=O)c3ccc(Cl)cc3Cl)c12)NS(=O)(=O)c1cc(Cl)c(Cl)s1
Activity (Liver microsomes): 72%
remaining at 0.5 h, 5 µM [1]: 79%

Structure (SMILES): O=C(COc1cccc2[nH]cc(Sc3ccc(Cl)cc3Cl)c12)NS(=O)(=O)c1cc(Cl)c(Cl)s1
Ratio IC50 (Homo sapiens [4]): 8880
Activity (Liver microsomes): 0%
IC50 [2]: 27.6 nM
Ratio IC50 (Homo sapiens [5]): 3520
Ratio IC50 (Homo sapiens [6]): 6230
Ratio IC50 (Homo sapiens [7]): 2030
fold shift [3]: 0.2
remaining at 0.5 h, 5 µM [1]: 37%
Ratio IC50 (Homo sapiens [8]): 3350

Structure (SMILES): O=C(COc1cccc2[nH]cc(Sc3ccc(Cl)cc3)c12)NS(=O)(=O)c1cc(Cl)c(Cl)s1
Activity (Liver microsomes): 14%
remaining at 0.5 h, 5 µM [1]: 52%

Structure (SMILES): O=C(COc1cccc2[nH]cc(S(=O)(=O)c3nc[nH]n3)c12)NS(=O)(=O)c1cc(Cl)c(Cl)s1
IC50 [2]: 236 nM

Structure (SMILES): COc1ccc(S(=O)(=O)NC(=O)COc2cccc3[nH]cc(S(=O)(=O)c4ccc5ccccc5c4)c23)cc1
IC50 [2]: 544 nM

Structure (SMILES): O=C(COc1cccc2[nH]cc(Sc3ccccc3Cl)c12)NS(=O)(=O)c1cc(Cl)c(Cl)s1
IC50 [2]: 13.7 nM
fold shift [3]: 5.8

Structure (SMILES): Cn1nnnc1S(=O)(=O)c1c[nH]c2cccc(OCC(=O)NS(=O)(=O)c3cc(Cl)c(Cl)s3)c12
IC50 [2]: 88.4 nM

More lines, now with the values ahead:

Ratio IC50 (Homo sapiens [4]): 1860
IC50 [2]: 1.3 nM
Ratio IC50 (Homo sapiens [5]): 13100
Ratio IC50 (Homo sapiens [6]): 1290
Ratio IC50 (Homo sapiens [7]): 401
fold shift [3]: 5.2
Ratio IC50 (Homo sapiens [8]): 31600
Structure (SMILES): Cc1ccc(Sc2c[nH]c3cccc(OCC(=O)NS(=O)(=O)c4cc(Cl)c(Cl)s4)c23)c(C)c1

IC50 [2]: 2.5 nM
fold shift [3]: 10.5
Structure (SMILES): Cn1c(Sc2c[nH]c3cccc(OCC(=O)NS(=O)(=O)c4cc(Cl)c(Cl)s4)c23)nc2ccccc21

Ratio IC50 (Homo sapiens [4]): 1360
IC50 [2]: 2 nM
Ratio IC50 (Homo sapiens [5]): 12300
Ratio IC50 (Homo sapiens [6]): 1090
Ratio IC50 (Homo sapiens [7]): 1030
fold shift [3]: 2.2
Ratio IC50 (Homo sapiens [8]): 1300
Structure (SMILES): O=C(COc1cccc2[nH]cc(Sc3ccc4ccccc4c3)c12)NS(=O)(=O)c1cccc(Cl)c1

Ratio IC50 (Homo sapiens [4]): 1770
Activity (Liver microsomes): 74%
IC50 [2]: 1.3 nM
Ratio IC50 (Homo sapiens [5]): 10800
IC50 (Rattus norvegicus): 358 nM
Ratio IC50 (Homo sapiens [6]): 950
Ratio IC50 (Homo sapiens [7]): 596
fold shift [3]: 1.1
remaining at 0.5 h, 5 µM [1]: 46%
IC50 [9]: 0.3 nM
Ratio IC50 (Homo sapiens [8]): 4480
IC50 [10]: 15.5 nM
Structure (SMILES): O=C(COc1cccc2[nH]cc(Sc3ccc(Cl)c(Cl)c3)c12)NS(=O)(=O)c1cc(Cl)c(Cl)s1

IC50 [2]: 5.7 nM
fold shift [3]: 33.2
Structure (SMILES): Cc1ccc(S(=O)(=O)c2c[nH]c3cccc(OCC(=O)NS(=O)(=O)c4cc(Cl)c(Cl)s4)c23)c(C)c1

IC50 [2]: 3 nM
fold shift [3]: 27.5
Structure (SMILES): O=C(COc1cccc2[nH]cc(Sc3ccc4ccccc4c3)c12)NS(=O)(=O)c1cccs1

IC50 [2]: 1.4 nM
fold shift [3]: 48.7
Structure (SMILES): O=C(COc1cccc2[nH]cc(Sc3ccc4ccccc4c3)c12)NS(=O)(=O)c1ccccc1Cl

Ratio IC50 (Homo sapiens [4]): 4220
Activity (Liver microsomes): 68.8%
IC50 [2]: 4.7 nM
Ratio IC50 (Homo sapiens [5]): 5190
IC50 (Rattus norvegicus): 136 nM
Ratio IC50 (Homo sapiens [6]): 1450
Ratio IC50 (Homo sapiens [7]): 384
fold shift [3]: 3.6
remaining at 0.5 h, 5 µM [1]: 69.7%
IC50 [9]: 1 nM
Ratio IC50 (Homo sapiens [8]): 2710
IC50 [10]: 2 nM
Structure (SMILES): O=C(COc1cccc2[nH]cc(S(=O)(=O)c3ccc(Cl)c(Cl)c3)c12)NS(=O)(=O)c1cc(Cl)c(Cl)s1

IC50 [2]: 0.5 nM
fold shift [3]: 22.6
Structure (SMILES): COc1ccc(Sc2c[nH]c3cccc(OCC(=O)NS(=O)(=O)c4cc(Cl)c(Cl)s4)c23)cc1
